These results are taken from PubChem BioAssay (NCI).

Among the test systems are DU-145 prostate; SF-295 CNS; NCI-H226 lung; SF-268 CNS; RPMI-8226 leukemia; 786-0 renal; UO-31 renal; SK-MEL-5 melanoma; SNB-75 CNS; HCT-116 colon.
Assay in all cases: growth of human tumour cells (NCI), 48 h

Molecules are shown by their SMILES.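 Cultured in 96-well plates, cells were exposed to test compound for 48 hours across five concentrations. GI50 = concentration required for 50% inhibition of growth. TGI is the concentration that stops growth completely.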

Consider `O=C(NOCC1CC1)c1ccc(F)c(F)c1Nc1ccc(I)cc1Cl`, for which the GI50 is 4.07 µM in the experiment with DU-145 prostate; 2.63 µM with SF-295 CNS; 2.77 µM in the experiment with NCI-H226 lung; 2.82 µM with SF-268 CNS; 1.97 µM in the experiment with RPMI-8226 leukemia; 2.7 µM with 786-0 renal. Moreover, the GI50 is 1.23 µM in the experiment with UO-31 renal, 1.15 µM in the experiment on SK-MEL-5 melanoma, 2.15 µM in the experiment on SNB-75 CNS and 0.641 µM with HCT-116 colon. For the same molecule, the TGI with DU-145 prostate is over 100 µM; in the experiment with SF-295 CNS it was 44.6 µM; with NCI-H226 lung it was over 52.1 µM; in the experiment with SF-268 CNS, over 100 µM; with RPMI-8226 leukemia, 9.48 µM; in the experiment with 786-0 renal, over 35.1 µM. In addition, the TGI in the experiment on UO-31 renal was 6.62 µM; in the experiment with SK-MEL-5 melanoma it was 5.83 µM; with SNB-75 CNS it was over 45.2 µM; with HCT-116 colon, 9.06 µM.

As for `C=C(CN1CCc2ccccc2C1)c1ccc(C(=O)Nc2ccc(N)cc2)cc1`, the GI50 is 21.1 µM in the experiment with DU-145 prostate; 16.5 µM in the experiment with SF-295 CNS; 58.5 µM with NCI-H226 lung; 23.5 µM in the experiment on SF-268 CNS; 2.5 µM with RPMI-8226 leukemia; 22.9 µM in the experiment with 786-0 renal. Besides, the GI50 in the experiment on UO-31 renal is 3.93 µM; in the experiment with SK-MEL-5 melanoma it was 16.3 µM; with SNB-75 CNS it was 9.87 µM; in the experiment with HCT-116 colon, 11.9 µM. In addition, the TGI in the experiment with DU-145 prostate was 81.3 µM; with SF-295 CNS it was 59.4 µM; in the experiment with NCI-H226 lung it was over 100 µM; in the experiment on SF-268 CNS, over 100 µM; in the experiment on RPMI-8226 leukemia, 19 µM; with 786-0 renal it was over 100 µM. Further, the TGI with UO-31 renal was 30.5 µM; with SK-MEL-5 melanoma it was 30.9 µM; with SNB-75 CNS, 53.6 µM; in the experiment on HCT-116 colon it was over 100 µM.

Take `O=C1C=Cc2ccccc2/C1=C/c1[nH]c(=O)[nH]c1O`: the GI50 in the experiment on DU-145 prostate is 5.8 µM; in the experiment with SF-295 CNS, 3.1 µM; in the experiment with NCI-H226 lung it was 9.59 µM; in the experiment on SF-268 CNS, 7.27 µM; in the experiment on RPMI-8226 leukemia it was 45.2 µM; in the experiment with 786-0 renal, 5.41 µM. For the same molecule, the GI50 in the experiment on UO-31 renal is 1.78 µM; in the experiment on SK-MEL-5 melanoma it was 2.84 µM; with SNB-75 CNS it was 2.14 µM; in the experiment on HCT-116 colon it was 4.12 µM. Moreover, the TGI in the experiment with DU-145 prostate was 76.8 µM; in the experiment on SF-295 CNS it was 8.3 µM; in the experiment with NCI-H226 lung it was over 100 µM; in the experiment with SF-268 CNS, over 100 µM; in the experiment with RPMI-8226 leukemia it was over 100 µM; in the experiment with 786-0 renal, 29.5 µM. The TGI was found to be 28.5 µM in the experiment on UO-31 renal, 13 µM in the experiment on SK-MEL-5 melanoma, 7.44 µM in the experiment with SNB-75 CNS and 18.3 µM with HCT-116 colon.

On to `C/C=C(\C)C(=O)O[C@H]1C=CC(=O)O[C@H]1CNC(=O)[C@H](C)O`, for which the GI50 with DU-145 prostate was 31.7 µM; in the experiment with SF-295 CNS, 32.6 µM; with NCI-H226 lung, 17.9 µM; in the experiment with SF-268 CNS, 16.7 µM; in the experiment with RPMI-8226 leukemia it was 21.3 µM; in the experiment with 786-0 renal it was 13.3 µM. For the same molecule, the GI50 was 16.9 µM with UO-31 renal, 17 µM in the experiment on SK-MEL-5 melanoma, 22.3 µM in the experiment on SNB-75 CNS and 13.1 µM in the experiment on HCT-116 colon. Further, the TGI was over 100 µM with DU-145 prostate; over 100 µM in the experiment with SF-295 CNS; 46.7 µM with NCI-H226 lung; 35.7 µM in the experiment with SF-268 CNS; 45.7 µM in the experiment with RPMI-8226 leukemia; 26.1 µM in the experiment on 786-0 renal. Besides, the TGI with UO-31 renal stood at 33.4 µM; with SK-MEL-5 melanoma, 31.3 µM; in the experiment with SNB-75 CNS, 48.8 µM; in the experiment with HCT-116 colon, 26 µM.

Turning to `COc1cc(/C=C/C(=O)c2ccc(Cl)cc2)ccc1OS(=O)(=O)c1ccc(C)cc1`, the GI50 was 16.4 µM in the experiment with DU-145 prostate; 9.27 µM with SF-295 CNS; 12.7 µM with NCI-H226 lung; 7.17 µM in the experiment with SF-268 CNS; 2.1 µM with RPMI-8226 leukemia; 10.7 µM in the experiment with 786-0 renal. Further, the GI50 in the experiment on UO-31 renal is 6.95 µM; with SK-MEL-5 melanoma it was 12.4 µM; in the experiment with SNB-75 CNS, 31.6 µM; with HCT-116 colon, 1.76 µM. The TGI worked out at 45.2 µM in the experiment with DU-145 prostate; 26.2 µM in the experiment on SF-295 CNS; 27.9 µM in the experiment on NCI-H226 lung; 34 µM with SF-268 CNS; 4.77 µM in the experiment with RPMI-8226 leukemia; 24.6 µM in the experiment with 786-0 renal. Further, the TGI in the experiment with UO-31 renal is 21.1 µM; in the experiment on SK-MEL-5 melanoma it was 25.1 µM; in the experiment with SNB-75 CNS, over 100 µM; in the experiment on HCT-116 colon, 3.71 µM.

As for `CC(C)(O)C1OCC(C2CCC3(C)C4=CCC5C(C)(C)C(O)CCC5(C)C4CCC23C)CC1O` (stereo not given), the TGI in the experiment on DU-145 prostate amounted to 31.1 µM; with SF-295 CNS, 26.8 µM; in the experiment on NCI-H226 lung, 27.9 µM; in the experiment on SF-268 CNS, 30.4 µM; with RPMI-8226 leukemia, 77.8 µM; in the experiment with 786-0 renal it was 27.3 µM. The TGI in the experiment on UO-31 renal was determined as 41.8 µM; with SK-MEL-5 melanoma, 27.8 µM; in the experiment on SNB-75 CNS it was 34.6 µM; with HCT-116 colon, 27.6 µM.

Consider `O=C(NC(=S)Nc1ccc(Cl)cc1)c1ccccc1`, for which the GI50 with DU-145 prostate is over 72.9 µM; with SF-295 CNS it was over 65.1 µM; in the experiment on NCI-H226 lung, over 100 µM; with SF-268 CNS, 76 µM; in the experiment with RPMI-8226 leukemia, over 100 µM; in the experiment on 786-0 renal it was over 87.4 µM. The GI50 in the experiment on UO-31 renal was 99 µM; in the experiment with SK-MEL-5 melanoma, over 100 µM; in the experiment on SNB-75 CNS, over 49.7 µM; with HCT-116 colon, over 100 µM. The TGI in the experiment with DU-145 prostate, with SF-295 CNS, in the experiment with NCI-H226 lung, in the experiment on SF-268 CNS, with RPMI-8226 leukemia and in the experiment on 786-0 renal was over 100 µM in each case. In addition, the TGI in the experiment with UO-31 renal, with SK-MEL-5 melanoma, with SNB-75 CNS and in the experiment on HCT-116 colon was over 100 µM each time.

With `COc1c(O)ccc2c1CN1CCc3cc4c(cc3C1C2)OCO4` (stereo not given), the TGI with DU-145 prostate was over 100 µM; in the experiment with SF-295 CNS, over 96.6 µM; in the experiment with NCI-H226 lung it was over 100 µM; with SF-268 CNS it was over 100 µM; in the experiment on RPMI-8226 leukemia it was over 100 µM; in the experiment with 786-0 renal, over 100 µM. Moreover, the TGI with UO-31 renal was over 100 µM; with SK-MEL-5 melanoma, over 100 µM; with SNB-75 CNS, 65.3 µM; in the experiment on HCT-116 colon it was over 100 µM.
